Measurements reported in patent US20240199552A1, “AMIDE COMPOUND AND USE THEREOF” (Metisa Biotechnology Co., Ltd, priority 2021, published 2024).

Assays:
Type in all cases: in vivo
cat flea = test: Insecticidal experiment on cat flea, thin film in culture dish; conditions: Ctenocephalides felis, 72 h, read-out: mortality rate, cat flea
Experimental: 4 mg of the compound to be determined was dissolved in 40 mL of acetone to obtain an acetone solution with a concentration of 100 mg/L. 400 μL of the drug solution was applied on the bottom and sides of a culture dish with an inner diameter of 5.3 cm, then after acetone was evaporated, a thin film of the compound of the present invention was made on the inner wall of the culture dish. The inner wall of the culture dish used was 40 cm^2, and the treatment dosage was 1 μg/cm^2. 10 adult cat fleas (mixed male and female) were put into the dish, and it was stored in a constant-temperature room at 25° C. after being covered. The number of dead insects after 72 h was checked and the mortality rate was calculated. The experiment was repeated for 3 times.

[1] = tested on: Franklinella occidentalis; test: Insecticidal activity against Franklinella occidentalis nymphs, sprayed bean leaves
Experimental: (§1) After the compound to be determined was dissolved in a mixed solvent of acetone/methanol (1:1), it was diluted with water containing 0.1% (wt) Tween-80 to a desired concentration.
(§2) Mythimna separata, Diamondback moth, Chilo suppressalis, Spodoptera exigua, Myzus persicae, and Franklinella occidentalis were used as targets, and the activity was tested by an Airbrush spray method.
Determination method: fresh bean leaves cultivated in a greenhouse were selected, a hand-held Airbrush sprayer was used to spray uniformly, each treatment was 1 mL, and after being air-dried naturally, the leaves were placed in a finger-shaped tube. Neat and healthy Franklinella occidentalis nymphs were introduced, there were 15 nymphs for each treatment, 3 replicates were set for the experiment, and water treatment was set as a blank control. After the treatment, the leaves were put into an indoor culture room for culture at 24° C., a relative humidity of 60-70%, and natural light. After 72 h, the number of live insects was investigated and the mortality rate was calculated.

Myzus persicae = test: Insecticidal activity against Myzus persicae, Airbrush spray on cabbage leaves; conditions: 50 mg/L, after 48 h, read-out: mortality rate against Myzus persicae
Experimental: as §1, §2
Determination method: a culture dish with a diameter of 6 cm was taken, the bottom of the dish was covered by a layer of filter paper, and an appropriate amount of tap water was added to moisturize the paper. Cabbage leaves with an appropriate size (the diameter was about 3 cm) and 15-30 aphids grown were cut from cabbage plants used to culture Myzus persicae, winged aphids and aphids on the front of the leave were removed, and it was placed in the culture dish while the back of the leave was upward. The pressure of airbrush spray treatment was 10 psi (about 0.7 kg/cm^2), the liquid spray volume was 0.5 mL, and there were 3 replicates for each treatment. After the treatment, the leave was put into an observation room for culture at 25° C. and a relative humidity of 60-70%. After 48 h, the number of live insects was investigated and the mortality rate was calculated.

Spodoptera exigua = test: Insecticidal activity against Spodoptera exigua, leaf disc dipping feeding method; conditions: foliar, 72 h, 0.625 mg/L, 3 days after the administration, read-out: mortality rate against Spodoptera exigua
Experimental: After the compound to be determined was dissolved in a mixed solvent of acetone/methanol (1:1), it was diluted with water containing 0.1% (wt) Tween-80 to a desired concentration. […]
Determination method: the activity was tested by using a leaf disc dipping feeding method. Leaf discs were dipped in a drug solution for 10 s, and placed in a culture dish after being air-dried, there were 4 discs in each dish, and a filter paper was placed in the culture dish for moisture retention. 10 test insects of Spodoptera exigua were introduced to each dish, with 3 replicates.
They were placed in a light incubator for culture at a temperature of 25° C. and an illumination of 14hL:10hD. On the 1st, 2nd, and 3rd day after the administration, the number of dead Spodoptera exigua was investigated and the mortality rate was calculated.

Chilo suppressalis = test: Insecticidal activity against Chilo suppressalis, sprayed rice stems; conditions: 72 h, 0.625 mg/L, 3 days after the administration, 3rd-instar larvae, read-out: mortality rate against Chilo suppressalis
Experimental: as §1, §2
Determination method: 1) Preparation of rice seedlings: rice was cultured in a plastic small cup with a diameter of 4.5 cm and a height of 4 cm in a constant temperature room (the temperature was 26-28° C., the relative humidity was about 60-80%, and the illumination was 16hL:8hD), when the rice grown to a 4-5 leaf stage, robust and uniformly grown rice seedlings were selected for pharmaceutical treatment, and 3 replicates were set for each treatment. 2) Preparation of test insects: 3rd-instar larvae of Chilo suppressalis were continuously reared indoors. 3) Rice stems were sprayed and insects were introduced. A spray method was used to treat whole rice seedlings with uniform spray, and each treatment was 15 mL. Blank controls were treated firstly, and then the above operation was repeated in an order of experimental concentrations from low to high. After the spray treatment of the rice seedlings, they were placed in the shade to air-dry drug liquid, about 5 cm of the stem from a basal part of the stem was cut and fed to the test insects. A glass culture dish with a diameter of 90 mm was prepared, filter paper was placed on the bottom of the dish, then water was added to moisturize. About 5 rice stems were placed in each dish, 10 larvae were introduced, and the culture dish was closed with non-woven fabric and placed in the constant-temperature room for culture. 3 days after the administration, the number of residual live insects was investigated.

Mythimna separata = test: Insecticidal activity against Mythimna separata, Airbrush spray on maize leaf pieces; conditions: 72 h, 0.05 mg/L, 3 days after the administration, 3rd-instar larvae, read-out: mortality rate against Mythimna separata
Experimental: as §1, §2
Determination method: maize leaves were cut into 2 cm leaf pieces, and the front and back of each leaf piece were sprayed under an Airbrush spray treatment pressure of 10 psi (approximate to 0.7 kg/cm^2) and with a spray volume of 0.5 mL. After drying in the shade, 10 3rd-instar larvae were inoculated for each treatment, and each treatment was repeated for 3 times. After the treatment, the leaf pieces were put into an observation chamber at 25° C. and with a relative humidity of 60% to 70%, and the number of living larvae was investigated 3 days after the administration of the compounds, and the mortality rates were calculated.

Diamondback moth = test: Insecticidal activity against Diamondback moth, Airbrush spray on cabbage leaf discs; conditions: Plutella xylostella, foliar, 72 h, 3 days after the administration; for mortality at 1.25 µg/mL: 1.25 mg/L, 3rd-instar larvae, read-out: mortality rate against Diamondback moth; for mortality at 10 µg/mL: 10 mg/L, read-out: Mortality rate (%, 3 days after the administration) 10 mg/L
Experimental: as §1, §2
Determination method: cabbage leaves were formed into leaf discs having a diameter of 2 cm using a puncher, and the front and back of each leaf disc were sprayed under an Airbrush spray treatment pressure of 10 psi (approximate to 0.7 kg/cm^2) and with a spray volume of 0.5 mL. After drying in the shade, 10 3rd-instar larvae were inoculated for each treatment, and each treatment was repeated for 3 times. After the treatment, the leaf discs were placed into an observation chamber at 25° C. and with a relative humidity of 60% to 70%, and the number of living larvae was investigated 3 days after the administration of the compounds, and the mortality rates were calculated.

SMILES | mortality at 1 µg/cm2 (cat flea) [%] | Mortality rate (%, 3 days after the administration) 10 mg/L ([1]; 10 mg/L) [%] | Mortality rate (%, 3 days after the administration) 100 mg/L ([1]; 100 mg/L) [%] | mortality at 50 µg/mL (Myzus persicae) [%] | mortality at 0.625 µg/mL (Spodoptera exigua) [%] | mortality at 0.625 µg/mL (Chilo suppressalis) [%] | mortality at 0.05 µg/mL (Mythimna separata) [%] | mortality at 0.156 µg/mL (Diamondback moth; 0.156 mg/L, Diamondback moth, read-out: Mortality rate (%, 3 days after the administration) 0.156 mg/L) [%] | mortality at 0.313 µg/mL (Diamondback moth; 0.313 mg/L, Diamondback moth, read-out: Mortality rate (%, 3 days after the administration) 0.313 mg/L) [%] | mortality at 1.25 µg/mL (Diamondback moth) [%] | mortality at 10 µg/mL (Diamondback moth; Diamondback moth) [%]
C=CCN(C(=O)c1ccccc1)c1cccc(C(=O)Nc2c(Br)cc(C(F)(C(F)(F)F)C(F)(F)F)cc2C(F)(F)F)c1F [Compound 3] | > 90 | 93.33 | 100 | > 90 | > 90 | > 90 | > 90 | 100 | 100 | > 90 | 100
C#CCN(C(=O)c1ccc(C(F)(F)F)nc1)c1cccc(C(=O)Nc2c(Br)cc(C(F)(C(F)(F)F)C(F)(F)F)cc2C(F)(F)F)c1F [Compound 55] | > 90 |  |  | > 90 | > 90 | > 90 | > 90 |  |  | > 90 | 100
C#CCN(C(=O)c1ccc(C#N)cc1)c1cccc(C(=O)Nc2c(Br)cc(C(F)(C(F)(F)F)C(F)(F)F)cc2C(F)(F)F)c1F [Compound 39] | > 90 |  |  | > 90 | > 90 | > 90 | > 90 |  |  | > 90 | 100
C=CCN(C(=O)c1ccc(C#N)nc1)c1cccc(C(=O)Nc2c(I)cc(C(F)(C(F)(F)F)C(F)(F)F)cc2C(F)(F)F)c1F [Compound 24] | > 90 |  |  | > 90 | > 90 | > 90 | > 90 |  |  | > 90 | 100
C=CCN(C(=O)c1ccc(C#N)cc1)c1cccc(C(=O)Nc2c(Br)cc(C(F)(C(F)(F)F)C(F)(F)F)cc2C(F)(F)F)c1F [Compound 11] | > 90 |  |  | > 90 | > 90 | > 90 | > 90 |  |  | > 90 | 100
C=CCN(C(=O)c1ccc(C(F)(F)F)nc1)c1cccc(C(=O)Nc2c(I)cc(C(F)(C(F)(F)F)C(F)(F)F)cc2C(F)(F)F)c1F [Compound 28] | > 90 |  |  | > 90 | > 90 | > 90 | > 90 |  |  | > 90 | 100
C#CCN(C(=O)c1ccc(C#N)nc1)c1cccc(C(=O)Nc2c(I)cc(C(F)(C(F)(F)F)C(F)(F)F)cc2C(F)(F)F)c1F [Compound 52] | > 90 |  |  | > 90 | > 90 | > 90 | > 90 |  |  | > 90 | 100
C=CCN(C(=O)c1ccc(C#N)nc1)c1cccc(C(=O)Nc2c(Br)cc(C(F)(C(F)(F)F)C(F)(F)F)cc2C(F)(F)F)c1F [Compound 23] | > 90 |  |  | > 90 | > 90 | > 90 | > 90 |  |  | > 90 | 100
C=CCN(C(=O)c1ccc(C#N)cc1)c1cccc(C(=O)Nc2c(I)cc(C(F)(C(F)(F)F)C(F)(F)F)cc2C(F)(F)F)c1F [Compound 12] | > 90 |  |  | > 90 | > 90 | > 90 | > 90 |  |  | > 90 | 100
C=CCN(C(=O)c1ccccc1)c1cccc(C(=O)Nc2c(I)cc(C(F)(C(F)(F)F)C(F)(F)F)cc2C(F)(F)F)c1F [Compound 4] | > 90 |  |  | > 90 | > 90 | > 90 | > 90 |  |  | > 90 | 100
C=CCN(C(=O)c1ccc(C(F)(F)F)nc1)c1cccc(C(=O)Nc2c(Br)cc(C(F)(C(F)(F)F)C(F)(F)F)cc2C(F)(F)F)c1F [Compound 27] | > 90 |  |  | > 90 | > 90 | > 90 | > 90 |  |  | > 90 | 100
